Test results as given in the supplement of paper PMC10307832.

Legend:
Experiment in all cases: relative viability (nuclei count vs DMSO), 5 days (fraction); higher = more cells survive
[1] = compound: CC1=NN=C(O1)C2=NN=C(C=C2)N3CCC(CC3)OC4=C(C=CC(=C4)F)Cl + COc1cc2c(Oc3ccc(NC(=O)C4(C(=O)Nc5ccc(F)cc5)CC4)cc3F)ccnc2cc1OCCCN1CCOCC1 [Foretinib] (partner 0.25 µM)
Procedure, shortened: (§1)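 Dosing by pin tool came one day after lung cancer cell lines were seeded in 1536-well plates, using either one drug or a fixed anchor-drug dose plus five library-drug doses (not always all listed) in √10 steps. After 5 days, nuclei were counted on 4× images. Relative viability is treated-well nuclei count divided by vehicle-well nuclei count, and values are medians of duplicate plates.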

Tosedostat + Palbociclib = compound: CC(C)C[C@@H](C(=O)N[C@H](C(=O)OC1CCCC1)c1ccccc1)[C@H](O)C(=O)NO [Tosedostat] + CC(=O)c1c(C)c2cnc(Nc3ccc(N4CCNCC4)cn3)nc2n(C2CCCC2)c1=O [Palbociclib] (partner 0.5 µM)
Procedure, shortened: as §1

[2] = compound: CC1=NN=C(O1)C2=NN=C(C=C2)N3CCC(CC3)OC4=C(C=CC(=C4)F)Cl + Nc1nc2[nH]cc(CCc3ccc(C(=O)N[C@@H](CCC(=O)O)C(=O)O)cc3)c2c(=O)[nH]1 [Pemetrexed] (partner 0.2 µM)
Procedure, shortened: as §1

[3] = compound: CC1=NN=C(O1)C2=NN=C(C=C2)N3CCC(CC3)OC4=C(C=CC(=C4)F)Cl + Cc1nc(Nc2ncc(C(=O)Nc3c(C)cccc3Cl)s2)cc(N2CCN(CCO)CC2)n1 [Dasatinib] (partner 0.075 µM)
Procedure, shortened: as §1

Question: What does the source list for UMC-11?
Answer: relative viability ([1]; first compound 0.253 µM): 0.539; relative viability ([1]; first compound 0.8 µM): 0.57; relative viability ([1]; first compound 2.53 µM): 0.543; relative viability ([1]; first compound 8 µM): 0.501; relative viability (Tosedostat + Palbociclib; first compound 0.02 µM): 0.339; relative viability (Tosedostat + Palbociclib; first compound 0.06325 µM): 0.341; relative viability (Tosedostat + Palbociclib; first compound 0.2 µM): 0.299; relative viability (Tosedostat + Palbociclib; first compound 0.6325 µM): 0.362; relative viability (Tosedostat + Palbociclib; first compound 2 µM): 0.338; relative viability ([2]; first compound 0.253 µM): 0.504; relative viability ([2]; first compound 0.8 µM): 0.535; relative viability ([2]; first compound 2.53 µM): 0.518; relative viability ([2]; first compound 8 µM): 0.37; relative viability ([3]; first compound 0.253 µM): 0.473; relative viability ([3]; first compound 0.8 µM): 0.476; relative viability ([3]; first compound 2.53 µM): 0.512; relative viability ([3]; first compound 8 µM): 0.435
